The values below come from patent publication US20130164338A1 (priority 2010, published 2013).

Molecules are shown by their SMILES.

This assay has as its system S. pneumoniae (Serotype 3; ATCC 6303). In words: S. pneumoniae mouse pneumonia model, nebulized salt formulations. The format is in vivo, C57BL/6 mice. To be noted: nebulized 2 h before infection; ~0.72 mg Ca/kg, ampicillin ~3 mg/kg.

With `CC1(C)S[C@@H]2[C@H](NC(=O)[C@H](N)c3ccccc3)C(=O)N2[C@H]1C(=O)O` [ampicillin], the “reduction of bacterial titers in lungs relative to saline control” value worked out at 33 fold.
